Results as given in patent US20110021565A1, “PIPERIDINE DERIVATIVES AS NK3 ANTAGONISTS” (priority 2007, published 2011).
Like-named read-outs stand apart in the source and are kept apart here.

Key:
[1] = tested on: symptoms of schizophrenia; settings: phase II trial, cited from earlier work
[2] = target: T1, recombinant human NK3 receptor (Homo sapiens, UniProt P29371); assay: [3H]SR142801 competition binding assay
T1 construct: expressed in transfected cells; host or cells: HEK293 cells, transient expression; membrane preparation
T1 sequence (P29371 1-465): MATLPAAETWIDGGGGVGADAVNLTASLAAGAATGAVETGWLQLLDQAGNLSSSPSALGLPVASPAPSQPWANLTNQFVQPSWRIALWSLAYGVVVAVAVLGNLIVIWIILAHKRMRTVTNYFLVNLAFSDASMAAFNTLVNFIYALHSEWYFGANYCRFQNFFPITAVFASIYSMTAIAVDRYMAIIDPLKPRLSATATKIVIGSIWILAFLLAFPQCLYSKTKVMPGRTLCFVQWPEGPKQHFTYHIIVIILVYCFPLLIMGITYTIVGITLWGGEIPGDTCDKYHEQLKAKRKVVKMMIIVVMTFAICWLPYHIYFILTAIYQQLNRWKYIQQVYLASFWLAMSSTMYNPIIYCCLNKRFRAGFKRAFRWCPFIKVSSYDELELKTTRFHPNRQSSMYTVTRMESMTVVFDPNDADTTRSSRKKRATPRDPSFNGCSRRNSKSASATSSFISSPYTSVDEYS
How it was run: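 Membranes from HEK293 cells transiently expressing the receptor (5 μg protein/well) incubated 75 min at RT with [3H]SR142801 at its KD and 10 compound concentrations (0.0003-10 μM), in pH 7.4 Tris buffer with MnCl2, phosphoramidon and BSA. Nonspecific binding defined with 10 μM SB222200; bound radioactivity counted after filtration. Ki from IC50 via Cheng-Prusoff; duplicates.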

[3] = [3H]SR142801, membranes of HEK293 cells transiently expressing recombinant human NK3 receptor, read-out: hNK3 Ki

SMILES | Ki [2, 3] [nM] | further results
CC(=O)N(C)C1(c2ccccc2)CCN(CCC[C@]2(c3ccc(Cl)c(Cl)c3)CCCN(C(=O)c3ccccc3)C2)CC1 [SR 142,801, Osanetant] |  | activity on positive symptoms of schizophrenia ([1]; altered behaviour, delusion, hallucinations, extreme emotions, excited motor activity, incoherent speech): active on positive symptoms of schizophrenia; activity on negative symptoms of schizophrenia ([1]; depression, anhedonia, social isolation, memory and attention deficits): inactive in the treatment of negative symptoms
CC(=O)NC1CCN(CCC(C)(C(=O)N[C@@H](CO)c2ccc(F)cc2)c2ccc(Cl)c(Cl)c2)CC1 (single isomer, unassigned; diastereoisomer 1) [Example 154, 4-(4-Acetylamino-piperidin-1-yl)-2-(3,4-dichloro-phenyl)-N-[1-(4-fluoro-phenyl)-2-hydroxy-ethyl]-2-methyl-butyramide (diastereoisomer 1)] | 170 | 
CC[C@@H](NC(=O)C(C)(CCN1CCC(N(CCOC)C(C)=O)CC1)c1ccc(Cl)c(Cl)c1)c1ccccc1 (stereo partly drawn) [Example 153, 4-{4-[Acetyl-(2-methoxy-ethyl)-amino]-piperidin-1-yl}-2-(3,4-dichloro-phenyl)-2-methyl-N-((R)-1-phenyl-propyl)-butyramide] | 60.9 | 
CN(Cc1ccc(C(F)(F)F)cc1)C(=O)C(C)(CCN1CCC(N2CCCC2=O)CC1)c1ccc(Cl)c(Cl)c1 (centres unmarked) [Example 88, 2-(3,4-Dichloro-phenyl)-2,N-dimethyl-4-[4-(2-oxo-pyrrolidin-1-yl)-piperidin-1-yl]-N-(4-trifluoromethyl-benzyl)-butyramide] | 1.8 | Ki ([2]; representative compounds, [3H]SR142801, HEK293 membranes, human NK3 receptor, read-out: Ki NK3 h): 1.8 nM
COc1cccc(CN(C)C(=O)C(C)(CCN2CCC(NS(C)(=O)=O)CC2)c2ccc(Cl)c(Cl)c2)c1 (centres unmarked) [Example 17, 2-(3,4-Dichloro-phenyl)-4-(4-methanesulfonyl-amino-piperidin-1-yl)-N-(3-methoxy-benzyl)-2,N-dimethyl-butyramide] | 213 | 
CC(=O)N(C1CC1)C1CCN(CCC(C)(C(=O)N[C@@H](CO)c2ccc(Cl)cc2)c2ccc(Cl)c(Cl)c2)CC1 (single isomer, unassigned; diastereoisomer 1) [Example 142, 4-[4-(Acetyl-cyclopropyl-amino)-piperidin-1-yl]-N-[1-(4-chloro-phenyl)-2-hydroxy-ethyl]-2-(3,4-dichloro-phenyl)-2-methyl-butyramide (diastereoisomer 1)] | 10.9 | 
